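Following 48 hours of exposure in 96-well plates, responses at five concentrations were used to interpolate endpoints linearly. TGI is the concentration that stops growth completely.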
Tested on: P388/ADR leukemia
Experiment: NCI tumour cell line growth inhibition, 48 h

O=C1C(=O)c2ccccc2C(O)=C1CC=C(Cl)Cl
TGI: 49.9 µM

Source: PubChem BioAssay (NCI)
